Marks after values point to notes of the source that are not given here.
How the values were obtained:
[1] = Pharmacokinetics in rat plasma; format: in vivo, Wistar rats; conditions: for AUC(0-inf): AUC0-∞; for CL/F: CLz/F; for MRT last: MRT0-t; for MRT inf: MRT0-∞
[2] = Stability test of QC samples; format: physicochemical, rat
[3] = Wistar, rat, plasma, po, 100 mg/kg, AUC0-t, FS-C: normal (blank) rats, oral FS 100 mg kg^−1, n = 6
[4] = Wistar, rat, plasma, po, 100 mg/kg, AUC0-t, FT-C: normal (blank) rats, oral FT 100 mg kg^−1, n = 6
[5] = Wistar, rat, plasma, po, 100 mg/kg, FS-C: normal (blank) rats, oral FS 100 mg kg^−1, n = 6
[6] = Wistar, rat, plasma, po, 100 mg/kg, FT-C: normal (blank) rats, oral FT 100 mg kg^−1, n = 6
[7] = Wistar, rat, plasma, po, 100 mg/kg, Cmax, FS-C: normal (blank) rats, oral FS 100 mg kg^−1, n = 6
[8] = Wistar, rat, plasma, po, 100 mg/kg, Cmax, FT-C: normal (blank) rats, oral FT 100 mg kg^−1, n = 6
[9] = Wistar, rat, plasma, po, 100 mg/kg, T1/2, FS-C: normal (blank) rats, oral FS 100 mg kg^−1, n = 6
[10] = Wistar, rat, plasma, po, 100 mg/kg, Tmax, FS-C: normal (blank) rats, oral FS 100 mg kg^−1, n = 6
[11] = Wistar, rat, plasma, po, 100 mg/kg, Tmax, FT-C: normal (blank) rats, oral FT 100 mg kg^−1, n = 6
[12] = Wistar, rat, plasma, po, 100 mg/kg, Tmax, control group, after oral administration of FS or FT
[13] = Store at 4 °C for 24 h, high concentration QC sample in rat plasma
[14] = Store at 4 °C for 24 h, low concentration QC sample in rat plasma
[15] = Store at 4 °C for 24 h, medium concentration QC sample in rat plasma
[16] = Store at room temperature for 12 h, high concentration QC sample in rat plasma
[17] = Store at room temperature for 12 h, low concentration QC sample in rat plasma
[18] = Store at room temperature for 12 h, medium concentration QC sample in rat plasma
[19] = Store at −20 °C for 20 days, high concentration QC sample in rat plasma
[20] = Store at −20 °C for 20 days, low concentration QC sample in rat plasma
[21] = Store at −20 °C for 20 days, medium concentration QC sample in rat plasma
[22] = Three freeze-thaw cycles, high concentration QC sample in rat plasma
[23] = Three freeze-thaw cycles, low concentration QC sample in rat plasma
[24] = Three freeze-thaw cycles, medium concentration QC sample in rat plasma
[25] = FS-C: normal (blank) rats, oral FS 100 mg kg^−1, n = 6
[26] = FS-M: microcirculation dysfunction model rats, oral FS 100 mg kg^−1, n = 6
[27] = FT-C: normal (blank) rats, oral FT 100 mg kg^−1, n = 6
[28] = FT-M: microcirculation dysfunction model rats, oral FT 100 mg kg^−1, n = 6
[29] = Wistar, rat, plasma, po, 100 mg/kg, T1/2, FT-C: normal (blank) rats, oral FT 100 mg kg^−1, n = 6
[30] = both the control and model groups treated with oral FS or FT

O=C(O)/C=C/c1ccc(O)c(O)c1 [Caffeic acid]
AUC(0-t) [1, 3]: 37.2 ± 11.5 ng·h/mL
AUC(0-t) [1, 4]: 31.7 ± 12 ng·h/mL
AUC(0-inf) [1, 5]: 40.5 ± 18.6 ng·h/mL
AUC(0-inf) [1, 6]: 44.4 ± 30.2 ng·h/mL
CL/F [1, 5]: 5.67 mL/min/kg
CL/F [1, 6]: 10.2 mL/min/kg
Cmax [1, 7]: 5.78 ± 0.23 ng/mL
Cmax [1, 8]: 4.65 ± 0.38 ng/mL
MRT last [1, 5]: 5.78 ± 2.57 h
MRT last [1, 6]: 5.61 ± 2.5 h
MRT inf [1, 5]: 7.21 ± 5.95 h
MRT inf [1, 6]: 10.7 ± 10.2 h
half-life [1, 9]: 3.62 ± 4.88 h
Tmax [1, 10]: 0.72 ± 0.31 h
Tmax [1, 11]: 0.61 ± 0.68 h
Tmax [1, 12]: > 0.47 h
Cmax in FT compared with FS ([1]; normal group, p < 0.01, 0.05): significantly lower
Cmax after modeling compared with control group ([1]; oral administration of FS): decreased
AUC0-t after modeling compared with control group ([1]; oral administration of FT): increased
Stability, Accuracy (RE, %) [2, 13]: 2.95%
Stability, Accuracy (RE, %) [2, 14]: 6.27%
Stability, Accuracy (RE, %) [2, 15]: −2.07%
Stability, Accuracy (RE, %) [2, 16]: 5.38%
Stability, Accuracy (RE, %) [2, 17]: −2.45%
Stability, Accuracy (RE, %) [2, 18]: 2.52%
Stability, Accuracy (RE, %) [2, 19]: 3.39%
Stability, Accuracy (RE, %) [2, 20]: −12.26%
Stability, Accuracy (RE, %) [2, 21]: 0.41%
Stability, Accuracy (RE, %) [2, 22]: 12.71%
Stability, Accuracy (RE, %) [2, 23]: 3.68%
Stability, Accuracy (RE, %) [2, 24]: 11.31%

O=C(O)[C@H](O)Cc1ccc(O)c(O)c1 [Danshensu]
AUC0-∞ [1, 25]: 641.77 ± 218.27 µg·h/L
AUC(0-t) [1, 25]: 542.82 ± 141.09 ng·h/mL
CLz/F [1, 25]: 0.02 ± 0.01 L/h/kg
Cmax [1, 25]: 88.45 ± 17.93 ng/mL
MRT0-t [1, 25]: 6.53 ± 2.11 h
MRT0-∞ [1, 25]: 11.93 ± 15.11 h
T1/2 [1, 25]: 5.74 ± 11.19 h
Tmax [1, 25]: 0.67 ± 0.37 h
AUC0-∞ [1, 26]: 947.33 ± 140.96 ^c μg·h·L^−1
AUC(0-t) [1, 26]: 880.02 ± 141.73 ^d μg·h·L^−1
CLz/F [1, 26]: 0.01 ± 0.00 ^c L·h^−1·kg^−1
Cmax [1, 26]: 105.53 ± 11.68 ng/mL
MRT0-t [1, 26]: 7.53 ± 0.85 h
MRT0-∞ [1, 26]: 9.53 ± 3.95 h
T1/2 [1, 26]: 4.47 ± 3.92 h
Tmax [1, 26]: 0.74 ± 1.60 h
AUC0-∞ [1, 27]: 588.72 ± 114.83 µg·h/L
AUC(0-t) [1, 27]: 584.67 ± 122.39 ng·h/mL
CLz/F [1, 27]: 0.02 ± 0.00 L/h/kg
Cmax [1, 27]: 99.66 ± 15.57 ng/mL
MRT0-t [1, 27]: 7.54 ± 0.95 h
MRT0-∞ [1, 27]: 7.81 ± 0.63 h
T1/2 [1, 27]: 2.18 ± 2.22 h
Tmax [1, 27]: 0.47 ± 0.07 h
AUC0-∞ [1, 28]: 767.88 ± 279.35 µg·h/L
AUC(0-t) [1, 28]: 658.64 ± 172.02 ng·h/mL
CLz/F [1, 28]: 0.02 ± 0.01 L/h/kg
Cmax [1, 28]: 165.48 ± 7.83^f μg·L^−1
MRT0-t [1, 28]: 5.33 ± 0.98 ^a^, ^e h
MRT0-∞ [1, 28]: 10.76 ± 12.84 h
T1/2 [1, 28]: 6.40 ± 11.48 h
Tmax [1, 28]: 1.00 ± 0.00 ^f h
AUC0-t in model group compared with control group ([1]; after modeling, p < 0.01, 0.05): significantly higher
AUC0-∞ in model group compared with control group ([1]; after modeling, p < 0.01, 0.05): significantly higher
MRT0-t in the model group treated with FT ([1]; compared with the control group treated with FT and the model group treated with FS): decreased
shape of the drug-time curve ([1]; control group with oral FS): bimodal phenomenon
CLz/F after modeling compared with control group ([1]; oral administration of FS): decrease
Cmax after modeling compared with control group ([1]; oral administration of FT): significant increase
Stability, Accuracy (RE, %) [2, 13]: 6.29%
Stability, Accuracy (RE, %) [2, 14]: −5.50%
Stability, Accuracy (RE, %) [2, 15]: 5.99%
Stability, Accuracy (RE, %) [2, 16]: 9.76%
Stability, Accuracy (RE, %) [2, 17]: −2.61%
Stability, Accuracy (RE, %) [2, 18]: 1.50%
Stability, Accuracy (RE, %) [2, 19]: −8.83%
Stability, Accuracy (RE, %) [2, 20]: 6.50%
Stability, Accuracy (RE, %) [2, 21]: 0.73%
Stability, Accuracy (RE, %) [2, 22]: −3.63%
Stability, Accuracy (RE, %) [2, 23]: 2.54%
Stability, Accuracy (RE, %) [2, 24]: −10.44%

O=C(/C=C/c1ccc(O)c2c1[C@H](C(=O)O)[C@@H](c1ccc(O)c(O)c1)O2)O[C@H](Cc1ccc(O)c(O)c1)C(=O)O [Lithospermic acid]
AUC(0-t) [1, 3]: 128 ± 40.5 ng·h/mL
AUC(0-t) [1, 4]: 119 ± 48.8 ng·h/mL
AUC(0-inf) [1, 5]: 164 ± 85 ng·h/mL
AUC(0-inf) [1, 6]: 119 ± 48.9 ng·h/mL
CL/F [1, 5]: 150 mL/min/kg
CL/F [1, 6]: 289 mL/min/kg
Cmax [1, 7]: 11.4 ± 1.33 ng/mL
Cmax [1, 8]: 13.7 ± 2.76 ng/mL
MRT last [1, 5]: 6.61 ± 1.61 h
MRT last [1, 6]: 8.67 ± 3.71 h
MRT inf [1, 5]: 11.1 ± 10.8 h
MRT inf [1, 6]: 8.67 ± 3.71 h
half-life [1, 9]: 5.06 ± 8.9 h
half-life [1, 29]: 1.03 ± 0.45 h
Tmax [1, 10]: 0.31 ± 0.16 h
Tmax [1, 11]: 0.22 ± 0.13 h
Tmax [1, 12]: < 0.39 h
AUC0-t in model group compared with control group ([1]; after modeling, p < 0.01, 0.05): significantly higher
shape of the drug-time curve [1, 30]: bimodal phenomenon
Cmax after modeling compared with control group ([1]; oral administration of FS): increased
Stability, Accuracy (RE, %) [2, 13]: 7.65%
Stability, Accuracy (RE, %) [2, 14]: 6.82%
Stability, Accuracy (RE, %) [2, 15]: 6.58%
Stability, Accuracy (RE, %) [2, 16]: 11.92%
Stability, Accuracy (RE, %) [2, 17]: −5.80%
Stability, Accuracy (RE, %) [2, 18]: 0.69%
Stability, Accuracy (RE, %) [2, 19]: −0.73%
Stability, Accuracy (RE, %) [2, 20]: −8.45%
Stability, Accuracy (RE, %) [2, 21]: 0.15%
Stability, Accuracy (RE, %) [2, 22]: −10.67%
Stability, Accuracy (RE, %) [2, 23]: 6.56%
Stability, Accuracy (RE, %) [2, 24]: 9.01%

C[C@@H]1O[C@@H](OC[C@H]2O[C@@H](Oc3c(-c4ccc(O)c(O)c4)oc4cc(O)cc(O)c4c3=O)[C@H](O)[C@@H](O)[C@@H]2O)[C@H](O)[C@H](O)[C@H]1O [Rutin]
AUC(0-t) [1, 4]: 77.9 ± 11.9 ng·h/mL
AUC(0-inf) [1, 6]: 116 ± 83.4 ng·h/mL
CL/F [1, 6]: 342 mL/min/kg
Cmax [1, 8]: 5.77 ± 0.62 ng/mL
MRT last [1, 6]: 7.51 ± 0.81 h
MRT inf [1, 6]: 15.4 ± 18.6 h
half-life [1, 29]: 7.39 ± 14.3 h
Tmax [1, 11]: 1.06 ± 1.47 h
Tmax [1, 12]: > 0.47 h
Stability, Accuracy (RE, %) [2, 13]: 0.42%
Stability, Accuracy (RE, %) [2, 14]: 3.07%
Stability, Accuracy (RE, %) [2, 15]: 7.93%
Stability, Accuracy (RE, %) [2, 16]: 11.51%
Stability, Accuracy (RE, %) [2, 17]: −6.74%
Stability, Accuracy (RE, %) [2, 18]: 0.45%
Stability, Accuracy (RE, %) [2, 19]: −1.16%
Stability, Accuracy (RE, %) [2, 20]: 7.31%
Stability, Accuracy (RE, %) [2, 21]: −5.30%
Stability, Accuracy (RE, %) [2, 22]: 4.10%
Stability, Accuracy (RE, %) [2, 23]: −8.01%
Stability, Accuracy (RE, %) [2, 24]: −5.39%

O=C(/C=C/c1ccc(O)c(O)c1/C=C/c1ccc(O)c(O)c1)O[C@H](Cc1ccc(O)c(O)c1)C(=O)O [Salvianolic acid A]
AUC(0-t) [1, 3]: 107 ± 46.1 ng·h/mL
AUC(0-t) [1, 4]: 122 ± 30.9 ng·h/mL
AUC(0-inf) [1, 5]: 168 ± 139 ng·h/mL
AUC(0-inf) [1, 6]: 162 ± 87.3 ng·h/mL
CL/F [1, 5]: 74.8 mL/min/kg
CL/F [1, 6]: 37 mL/min/kg
Cmax [1, 7]: 13.2 ± 8.35 ng/mL
Cmax [1, 8]: 8.58 ± 1.35 ng/mL
MRT last [1, 5]: 7.12 ± 2.26 h
MRT last [1, 6]: 8.8 ± 1.62 h
MRT inf [1, 5]: 17 ± 17.6 h
MRT inf [1, 6]: 15 ± 11.6 h
half-life [1, 9]: 9.92 ± 13.7 h
half-life [1, 29]: 7.38 ± 9.48 h
Tmax [1, 10]: 0.63 ± 0.42 h
Tmax [1, 11]: 0.56 ± 0.36 h
Tmax [1, 12]: > 0.47 h
shape of the drug-time curve [1, 30]: bimodal phenomenon
Stability, Accuracy (RE, %) [2, 13]: −0.93%
Stability, Accuracy (RE, %) [2, 14]: 1.81%
Stability, Accuracy (RE, %) [2, 15]: 11.49%
Stability, Accuracy (RE, %) [2, 16]: 3.31%
Stability, Accuracy (RE, %) [2, 17]: −1.96%
Stability, Accuracy (RE, %) [2, 18]: −3.89%
Stability, Accuracy (RE, %) [2, 19]: 2.45%
Stability, Accuracy (RE, %) [2, 20]: 7.09%
Stability, Accuracy (RE, %) [2, 21]: −9.12%
Stability, Accuracy (RE, %) [2, 22]: −10.32%
Stability, Accuracy (RE, %) [2, 23]: 1.08%
Stability, Accuracy (RE, %) [2, 24]: 11.33%
